Data reported in ChEMBL document CHEMBL3390836, “Mannich- and LedererManasse-based analogues of the natural product S-(+)-curcuphenol as cancer proliferation and migration inhibitors” (Medchemcomm, 2012).

Experiments:
Type in all cases: functional
[1] = Cytotoxicity against human OVCAR4 cells after 48 hrs by SRB assay; conditions: OVCAR-4, 48 h
[2] = Cytotoxicity against human NCI-ADR-RES cells after 48 hrs by SRB assay
[3] = tested on: ACHN; assay: Cytotoxicity against human ACHN cells assessed as cell growth at 10^-8 M after 48 hrs by SRB assay relative to control; conditions: read-out: Activity
[4] = tested on: MOLT-4; assay: Cytotoxicity against human MOLT4 cells assessed as cell growth at 10^-6 M after 48 hrs by SRB assay relative to control; conditions: MOLT-4, 48 h, read-out: Activity
[5] = tested on: COLO 205; assay: Cytotoxicity against human COLO205 cells assessed as cell growth at 10^-4 M after 48 hrs by SRB assay relative to control; conditions: COLO 205, 48 h, read-out: Activity
[6] = Cytotoxicity against human UO31 cells assessed as cell growth at 10^-6 M after 48 hrs by SRB assay relative to control; conditions: UO-31, 48 h, read-out: Activity
[7] = Cytotoxicity against human HCT116 cells assessed as cell growth at 10^-6 M after 48 hrs by SRB assay relative to control; conditions: HCT-116, 48 h, read-out: Activity
[8] = tested on: MDA-MB-468; assay: Cytotoxicity against human MDA-MB-468 cells assessed as cell growth at 10^-6 M after 48 hrs by SRB assay relative to control; conditions: MDA-MB-468, 48 h, read-out: Activity
[9] = tested on: MDA-MB-435; assay: Cytotoxicity against human MDA-MB-435 cells after 48 hrs by SRB assay; conditions: MDA-MB-435, 48 h
[10] = tested on: T47D; assay: Cytotoxicity against human T47D cells assessed as cell growth at 10^-6 M after 48 hrs by SRB assay relative to control; conditions: read-out: Activity
[11] = Cytotoxicity against human HCT15 cells assessed as cell growth at 10^-6 M after 48 hrs by SRB assay relative to control; conditions: HCT-15, 48 h, read-out: Activity
[12] = tested on: SNB-75; assay: Cytotoxicity against human SNB75 cells assessed as cell growth at 10^-8 M after 48 hrs by SRB assay relative to control; conditions: SNB-75, 48 h, read-out: Activity
[13] = tested on: CAKI-1; assay: Cytotoxicity against human Caki1 cells assessed as cell growth at 10^-7 M after 48 hrs by SRB assay relative to control; conditions: CAKI-1, 48 h, read-out: Activity
[14] = tested on: K562; assay: Cytotoxicity against human K562 cells assessed as cell growth at 10^-8 M after 48 hrs by SRB assay relative to control; conditions: K562, 48 h, read-out: Activity
[15] = tested on: MDA-MB-435; assay: Cytotoxicity against human MDA-MB-435 cells assessed as cell growth at 10^-8 M after 48 hrs by SRB assay relative to control; conditions: MDA-MB-435, 48 h, read-out: Activity
[16] = tested on: NCI-H226; assay: Cytotoxicity against human NCI-H226 cells assessed as cell growth at 10^-7 M after 48 hrs by SRB assay relative to control; conditions: NCI-H226, 48 h, read-out: Activity
[17] = tested on: LOX IMVI; assay: Cytotoxicity against human LOXIMVI cells after 48 hrs by SRB assay
[18] = tested on: LOX IMVI; assay: Cytotoxicity against human LOXIMVI cells assessed as cell growth at 10^-6 M after 48 hrs by SRB assay relative to control; conditions: read-out: Activity
[19] = tested on: T47D; assay: Cytotoxicity against human T47D cells assessed as cell growth at 10^-4 M after 48 hrs by SRB assay relative to control; conditions: read-out: Activity
[20] = tested on: RXF 393; assay: Cytotoxicity against human RXF393 cells after 48 hrs by SRB assay; conditions: RXF 393, 48 h
[21] = tested on: K562; assay: Cytotoxicity against human K562 cells assessed as cell growth at 10^-6 M after 48 hrs by SRB assay relative to control; conditions: K562, 48 h, read-out: Activity
[22] = Cytotoxicity against human UACC62 cells assessed as cell growth at 10^-8 M after 48 hrs by SRB assay relative to control; conditions: UACC-62, 48 h, read-out: Activity
[23] = Cytotoxicity against human SKOV3 cells assessed as cell growth at 10^-4 M after 48 hrs by SRB assay relative to control; conditions: SK-OV-3, 48 h, read-out: Activity
[24] = Cytotoxicity against human NCI-ADR-RES cells assessed as cell growth at 10^-6 M after 48 hrs by SRB assay relative to control; conditions: read-out: Activity
[25] = tested on: Malme-3M; assay: Cytotoxicity against human MALME-3M cells assessed as cell growth at 10^-7 M after 48 hrs by SRB assay relative to control; conditions: read-out: Activity
[26] = tested on: TK-10; assay: Cytotoxicity against human TK10 cells assessed as cell growth at 10^-8 M after 48 hrs by SRB assay relative to control; conditions: TK-10, 48 h, read-out: Activity
[27] = tested on: NCI-H23; assay: Cytotoxicity against human NCI-H23 cells assessed as cell growth at 10^-6 M after 48 hrs by SRB assay relative to control; conditions: NCI-H23, 48 h, read-out: Activity
[28] = tested on: NCI-H226; assay: Cytotoxicity against human NCI-H226 cells assessed as cell growth at 10^-6 M after 48 hrs by SRB assay relative to control; conditions: NCI-H226, 48 h, read-out: Activity
[29] = Cytotoxicity against human UO31 cells assessed as cell growth at 10^-8 M after 48 hrs by SRB assay relative to control; conditions: UO-31, 48 h, read-out: Activity
[30] = tested on: NCI-H322M; assay: Cytotoxicity against human NCI-H322M cells assessed as cell growth at 10^-7 M after 48 hrs by SRB assay relative to control; conditions: read-out: Activity
[31] = tested on: COLO 205; assay: Cytotoxicity against human COLO205 cells assessed as cell growth at 10^-6 M after 48 hrs by SRB assay relative to control; conditions: COLO 205, 48 h, read-out: Activity
[32] = tested on: SNB-75; assay: Cytotoxicity against human SNB75 cells assessed as cell growth at 10^-6 M after 48 hrs by SRB assay relative to control; conditions: SNB-75, 48 h, read-out: Activity
[33] = tested on: KM12; assay: Cytotoxicity against human KM12 cells after 48 hrs by SRB assay; conditions: KM12, 48 h
[34] = tested on: MDA-MB-468; assay: Cytotoxicity against human MDA-MB-468 cells assessed as cell growth at 10^-8 M after 48 hrs by SRB assay relative to control; conditions: MDA-MB-468, 48 h, read-out: Activity
[35] = tested on: SF-295; assay: Cytotoxicity against human SF295 cells assessed as cell growth at 10^-4 M after 48 hrs by SRB assay relative to control; conditions: SF-295, 48 h, read-out: Activity
[36] = Cytotoxicity against human OVCAR3 cells assessed as cell growth at 10^-7 M after 48 hrs by SRB assay relative to control; conditions: OVCAR-3, 48 h, read-out: Activity
[37] = tested on: SN12C; assay: Cytotoxicity against human SN12C cells after 48 hrs by SRB assay
[38] = read-out: LC50 (the source's name)

COc1ccc(CCN2COc3c([C@@H](C)CCC=C(C)C)ccc(C)c3C2)cc1OC
GI50 [1]: 2.89 µM
LC50 [1]: > 100 µM
TGI [1]: 16 µM
GI50 [2]: 2.96 µM
LC50 (lethal concentration, 50% cell kill) [2]: 35.2 µM
TGI [2]: 9.51 µM
growth at 0.01 µM [3]: 95%
growth at 1 µM [4]: 85%
growth at 100 µM [5]: -100%
growth at 1 µM [6]: 76%
growth at 1 µM [7]: 97%
growth at 1 µM [8]: 62%
GI50 [9]: 3.11 µM
TGI [9]: 10.9 µM
CC50 [9, 38]: 44.9 µM
growth at 1 µM [10]: 88%
growth at 1 µM [11]: 90%
growth at 0.01 µM [12]: 79%
growth at 0.1 µM [13]: 91%
growth at 0.01 µM [14]: 102%
growth at 0.01 µM [15]: 97%
growth at 0.1 µM [16]: 88%
GI50 [17]: 1.77 µM
LC50 (concentration killing 50% of cells) [17]: 7.96 µM
TGI [17]: 3.75 µM
growth at 1 µM [18]: 88%
growth at 100 µM [19]: -91%
GI50 [20]: 1.73 µM
LC50 (concentration killing 50% of cells) [20]: 18.2 µM
TGI [20]: 4.85 µM
growth at 1 µM [21]: 98%
growth at 0.01 µM [22]: 95%
growth at 100 µM [23]: -60%
growth at 1 µM [24]: 96%
growth at 0.1 µM [25]: 86%
growth at 0.01 µM [26]: 88%
growth at 1 µM [27]: 104%
growth at 1 µM [28]: 94%
growth at 0.01 µM [29]: 86%
growth at 0.1 µM [30]: 95%
growth at 1 µM [31]: 100%
growth at 1 µM [32]: 86%
GI50 [33]: 2.86 µM
TGI [33]: 9.64 µM
CC50 [33, 38]: 46.1 µM
growth at 0.01 µM [34]: 75%
growth at 100 µM [35]: -87%
growth at 0.1 µM [36]: 91%
GI50 [37]: 3.27 µM
LC50 [37]: 36.8 µM
TGI [37]: 13.5 µM
